Legend:
CYP3A4 = CYP3A4 (Homo sapiens (Human), UniProt P08684); experiment: biochemical; type: in vitro ADME; conditions: for IC50: human liver microsomes, midazolam 0.5 μmol/L; for CYP Inhibition Time Dependent (TDI) (untreated/Pre-incubation), CYP3A4: microsomes
Procedure: (§1) <Incubation Mixture> • 100 mM phosphate buffer (pH 7.4) • 0.1 mg/mL of pooled human liver microsomes (male and female mixture, a pool of 50 donors) <NADPH Aqueous Solution> • 10 mM NADPH (final concentration 1 mM NADPH) <Measurement of Metabolite>
Warfarin was used as internal standard (IS).
To a 96 deep well plate was added 2.5 μL, of the test substance solution (×200 concentration), 442.5 μL of Incubation Mixture, and 5 μL of the substrate solution, and the solution was mixed and warmed to 37° C. for 5 minutes. To this incubation solution 50 μL of 10 mM NADPH was added to start the reaction, and incubated at 37° C. for 5 minutes. After the incubation, 100 μL of the Incubation Mixture was removed, added to 150 μL of isopropanol containing IS and mixed. […] The filtrate was used for LC-MS/MS analysis.
To a 96 deep well plate was added 2.5 μL of the test substance solution (×200 concentration), and 442.5 μL of Incubation Mixture, and the solution was mixed and warmed to 37° C. for 5 minutes. To this incubation solution 50 μL of 10 mM NADPH was added and preincubated at 37° C. for 30 minutes. […] After the reaction, 100 μL of the Incubation Mixture was removed, added to 150 μL of isopropanol containing IS and mixed. […] The filtrate was used for LC-MS/MS analysis.
(§2) Based on the metabolite production of the DMSO control group defined as 100, percent inhibitions of the metabolite production in the test substance group were determined, and inhibition curves were plotted at 5 concentrations. The test substance concentration showing 50% inhibition (IC50) was determined from the fitting curve of the inhibition curve.

[1] = tested on: firefly luciferase HCV replicon cells (Huh3-1); experiment: Replicon assay (firefly luciferase HCV replicon cells); type: cell-based, Hepatitis C virus; conditions: for IC50: Hepatitis C virus, 72 h, Huh3-1 replicon cells, 3 days culture, luciferase readout, read-out: Anti-replicon Activity (IC50); for IC50 of antireplicon activity converted to: unit converted assuming liver specific gravity 1 g=1 mL (FIGS. 1 to 3)
Excerpt: As a reporter gene, for example, a gene into which a luciferase gene derived from a firefly is introduced can be used. Specifically, according to the method of Krieger et al. (N. Krieger et al., J. Virology: 75, 4614-24, 2001), a firefly luciferase gene is introduced, in a form fused with a neomycin-resistant gene, immediately downstream of an internal ribosome entry site (IRES) of the HCV gene. After synthesizing the RNA in vitro, it is introduced into suitable cells by, for example, electroporation to obtain firefly luciferase HCV replicon cells. These cells are seeded in wells of 96-well plates, to which a diluted test substance is added, and cultured for several days. The substrate is then added, and the luminescence is measured with a plate reader.
According to the method of Krieger et al. (N. Krieger et al., J. Virology: 75, 4614-24, 2001), a firefly luciferase gene was introduced, in a form fused with a neomycin-resistant gene, immediately downstream of an internal ribosome entry site (TRES) of the HCV gene. After synthesizing the RNA in vitro, it was introduced into Huh7 cells by electroporation and the cells were isolated as G418-resistant clones.
After culturing, the white plates were used for the replicon assay with Steady-Glo Luciferase Assay System (Promega cat. No. E2520). More specifically, 100 μL per well of the reagent was added, it was mixed 3-4 times by pipetting and allowed to stand for 5 minutes, and subsequently the luminescence was measured with a plate reader (EnVision™ 2103 Multilabel Reader).

[2] = Cytotoxicity test (WST-8); type: cell-based; conditions: human, firefly luciferase HCV replicon cells (Huh3-1); Huh3-1 replicon cells, 3 days culture, Cell counting kit-8; read-out: Cytotoxicity WST8 (IC50)
Procedure: The firefly luciferase HCV replicon cells (Huh3-1) were suspended in Dulbecco's MEM (Gibco cat. No. 10,569-010) containing 5% fetal bovine serum (Hyclone cat. No. SH30071.03), seeded at 4500 cells/90 μL/well in 96-well plates, and cultured overnight in 5% CO2 at 37° C. After 20 hours, 10 μL per well of compounds prepared at a concentration 10 times the final concentration were added, and they were further cultured for 3 days.
Two series of assay plates, one series of white plates and another series of clear plates, were prepared and used for the assay.
Clear plates were used for a cytotoxicity test (WST-8). Cytotoxicity was measured using Cell counting kit-8 (Dojindo cat. No. CK04). More specifically, 100 μL of Cell counting kit-8 diluted 10-fold from the stock solution with PBS (SIGMA cat. No. D8537) was added to each well in the aforementioned clear plates from which medium was removed and the plates were incubated at 37° C. for 30 to 60 minutes. Absorbance was measured at a wavelength of 460 nm and a control wavelength of 590 nm by a plate reader (EnVision™ 2103 Multilabel Reader). All values were expressed as differences from the background which was measured with neither cells nor drug and IC50 (50% inhibitory concentration) values of drugs were calculated based on the value when no drug was added defined as 0% inhibition.

CYP2C9 = CYP2C9 (Homo sapiens (Human), UniProt P11712); experiment: biochemical; conditions: for IC50: human liver microsomes, diclofenac 0.2 μmol/L; for TDI Ratio, CYP2C9: microsomes
Procedure: Tests were carried out according to the following experiment method.
as §1
After incubation, the concentrations of the produced metabolites were measured using LC-MS/MS (API4000 or 5500QTRAP). Warfarin was used as internal standard (IS). The concentration was calculated using a standard curve created using a metabolite standard solution.
To a 96 deep well plate was added 2.5 μL, of the test substance solution (×200 concentration), 442.5 μL of Incubation Mixture, and 5 μL of the substrate solution, and the solution was mixed and warmed to 37° C. for 5 minutes. To this incubation solution 50 μL of 10 mM NADPH was added to start the reaction, and incubated at 37° C. for 5 minutes. After the incubation, 100 μL of the Incubation Mixture was removed, added to 150 μL of isopropanol containing IS and mixed. This mixture was transferred onto a multi-screen filter, centrifuged at 500×g at 4° C. for 10 minutes. The filtrate was used for LC-MS/MS analysis.
To a 96 deep well plate was added 2.5 μL of the test substance solution (×200 concentration), and 442.5 μL of Incubation Mixture, and the solution was mixed and warmed to 37° C. for 5 minutes. To this incubation solution 50 μL of 10 mM NADPH was added and preincubated at 37° C. for 30 minutes. After the preincubation, 5 μL of the substrate solution was added and the solution was mixed and further incubated at 37° C. for 5 minutes for the reaction. After the reaction, 100 μL of the Incubation Mixture was removed, added to 150 μL of isopropanol containing IS and mixed. This mixture was transferred onto a multi-screen filter, centrifuged at 500×g at 4° C. for 10 minutes. The filtrate was used for LC-MS/MS analysis.
as §2
Time dependent inhibition (TDI) was calculated as a ratio of dividing IC50 of the sample without preincubation treatment by the IC50 value measured after the preincubation treatment.

[3] = Rat PK test (liver concentrations of active metabolites after oral prodrug); type: in vivo, Wistar rat
Procedure: The test was carried out according to the following protocol. • Animal: […] (Method of Analysis) Using LC-MS/MS (API 4000), standard curves for standard compounds were prepared, and the concentrations of the active metabolites No. 5514403 and No. 5526064 at the data points were calculated.

[4] = CYP3A4 (IC50 μM) Pre-incubation, 30 min preincubation with NADPH
[5] = CYP3A4 (IC50 μM) untreated, without preincubation
[6] = CYP2C9 (IC50 μM) Pre-incubation, 30 min preincubation with NADPH
[7] = CYP2C9 (IC50 μM) untreated, without preincubation
[8] = rat liver, 24 hours after dosing, prodrug p.o. 30 mg/kg once a day, 7 days
[9] = rat liver, prodrug p.o. 30 mg/kg once a day, 7 days

CYP3A4, sequence (P08684 whole entry): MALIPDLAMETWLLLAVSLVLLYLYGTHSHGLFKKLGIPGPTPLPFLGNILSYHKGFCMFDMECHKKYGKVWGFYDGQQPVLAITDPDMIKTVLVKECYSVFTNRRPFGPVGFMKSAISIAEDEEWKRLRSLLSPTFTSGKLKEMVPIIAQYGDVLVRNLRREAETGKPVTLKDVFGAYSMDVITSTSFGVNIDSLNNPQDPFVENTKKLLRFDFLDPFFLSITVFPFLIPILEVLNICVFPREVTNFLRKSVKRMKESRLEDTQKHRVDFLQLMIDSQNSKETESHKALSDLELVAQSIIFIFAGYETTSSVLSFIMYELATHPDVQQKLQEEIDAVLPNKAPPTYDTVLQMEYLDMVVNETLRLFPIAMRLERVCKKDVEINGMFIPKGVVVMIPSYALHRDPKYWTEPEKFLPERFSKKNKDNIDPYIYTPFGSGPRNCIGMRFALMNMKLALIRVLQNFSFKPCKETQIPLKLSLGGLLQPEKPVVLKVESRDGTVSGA
CYP2C9, sequence (P11712 whole entry): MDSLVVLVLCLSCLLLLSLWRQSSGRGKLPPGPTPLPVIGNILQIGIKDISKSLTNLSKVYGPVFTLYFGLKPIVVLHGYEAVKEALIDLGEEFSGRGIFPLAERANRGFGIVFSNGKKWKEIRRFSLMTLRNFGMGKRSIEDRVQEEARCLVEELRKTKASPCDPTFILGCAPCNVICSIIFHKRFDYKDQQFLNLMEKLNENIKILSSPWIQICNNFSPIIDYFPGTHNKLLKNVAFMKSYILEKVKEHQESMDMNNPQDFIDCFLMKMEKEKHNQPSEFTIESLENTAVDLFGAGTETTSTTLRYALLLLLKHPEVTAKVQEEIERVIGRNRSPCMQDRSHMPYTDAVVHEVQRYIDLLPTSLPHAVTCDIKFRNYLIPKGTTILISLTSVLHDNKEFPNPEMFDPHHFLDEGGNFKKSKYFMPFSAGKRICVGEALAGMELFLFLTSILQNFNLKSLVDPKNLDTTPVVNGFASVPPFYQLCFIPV

Row | Structure (SMILES) | IC50 (CYP3A4; [4]) [µM] | IC50 (CYP3A4; [5]) [µM] | CYP Inhibition Time Dependent (TDI) (untreated/Pre-incubation), CYP3A4 (CYP3A4) | IC50 [1] [µM] | IC50 of antireplicon activity converted to [1] [ng/g] | IC50 at 3 days [2] [µM] | IC50 (CYP2C9; [6]) [µM] | IC50 (CYP2C9; [7]) [µM] | TDI Ratio, CYP2C9 (CYP2C9) | concentration of active compound No. 5514403 in the liver [3, 8] [ng/g] | concentration of active metabolite No. 5526064 in the liver [3, 8] [ng/g] | exposure of the liver to the active drugs ([3]; rat, p.o., in comparison with No. 6809532 and No. 6811559) | presence of the active compound No. 5514403 in the liver [3, 9]
1 | CCCCCCCC(F)(F)CCCCCC/C=C/[C@H](C(=O)N[C@@H](Cc1ccc(OCCCC)cc1)C(=O)OC)[C@@](O)(CCOC)C(=O)O [No. 5514403, (E)-(2S,3S)-3-[(S)-2-(4-butoxy-phenyl)-1-methoxycarbonyl-ethylcarbamoyl]-12,12-difluoro-2-hydroxy-2-(2-methoxy-ethyl)-nonadec-4-enoic acid] | 11.9 | 23.8 | 1.98 | 0.0006 | 0.48 | > 1 | 19.6 | 7.7 | 0.39 |  |  |  | 
2 | CCCCCCCC(F)(F)CCCCCC/C=C/[C@H](C(=O)N[C@@H](Cc1ccc(OCCCC)cc1)C(=O)O)[C@@](O)(CCOC)C(=O)O [No. 5526064, (E)-(2S,3S)-3-[(S)-2-(4-butoxy-phenyl)-1-carboxy-ethylcarbamoyl]-12,12-difluoro-2-hydroxy-2-(2-methoxy-ethyl)-nonadec-4-enoic acid] | 11.8 | 16.2 | 1.37 | 0.00215 | 1.44 | > 1 | 24.4 | 12.5 | 0.51 |  |  |  | 
3 | CCCCCCCC(F)(F)CCCCCC/C=C/[C@H](C(=O)N[C@@H](Cc1ccc(OCCCC)cc1)C(=O)OC)[C@@](O)(CCOC)C(=O)OCc1oc(=O)oc1C [No. 6808755, (5-methyl-2-oxo-[1,3]dioxol-4-yl)methyl (E)-(2S,3S)-3-[(S)-2-(4-butoxy-phenyl)-1-methoxycarbonyl-ethylcarbamoyl]-12,12-difluoro-2-hydroxy-2-(2-methoxy-ethyl)-nonadec-4-enoate] |  |  |  |  |  |  |  |  |  | ≥ 100 | ≥ 100 | significantly higher exposure of the liver to the active drugs | 
4 | CCCCCCCC(F)(F)CCCCCC/C=C/[C@H](C(=O)N[C@@H](Cc1ccc(OCCCC)cc1)C(=O)OC)[C@@](O)(CCOC)C(=O)OC [No. 6809532, Methyl (E)-(2S,3S)-3-[(S)-2-(4-butoxy-phenyl)-1-methoxycarbonyl-ethylcarbamoyl]-12,12-difluoro-2-hydroxy-2-(2-methoxy-ethyl)-nonadec-4-enoate, reference compound] |  |  |  |  |  |  |  |  |  |  |  |  | hardly detected
5 | CCCCCCCC(F)(F)CCCCCC/C=C/[C@H](C(=O)N[C@@H](Cc1ccc(OCCCC)cc1)C(=O)OC)[C@@](O)(CCOC)C(=O)OCC(=O)OC [No. 6811559, Methoxycarbonylmethyl (E)-(2S,3S)-3-[(S)-2-(4-butoxy-phenyl)-1-methoxycarbonyl-ethylcarbamoyl]-12,12-difluoro-2-hydroxy-2-(2-methoxy-ethyl)-nonadec-4-enoate, reference compound] |  |  |  |  |  |  |  |  |  |  |  |  | hardly detected
